Test results taken from patent US20200393446A1, “BIOLUMINESCENT SCREENING TEST FOR DETECTING CELL CYTOLYSIS” (Centre National de la Recherche Scientifique (CNRS), priority 2017, published 2020).

Tests used:
[1] = test system: NK cells; test: NK cell cytotoxicity assay: NanoLuc release from K562-NanoLuc cells co-cultured with compound-treated PBMC; format: cell-based, human; details: PBMCs incubated 16 hours with Clobenpropit, 400,000 PBMCs/16,000 K562-NanoLuc, four hours of co-culture, FIG. 3B
Description: PBMC from healthy donors were incubated overnight in the absence or presence of compounds to be tested. Unless specified otherwise, PBMC were plated in 96-well round-bottom plates at a concentration of 400,000 cells/well in a final volume of 100 μL. After 16 hours, 16.000 K562-NanoLuc or twINNE cells were added to cultures wells (100 μL of cell suspension at 160,000 cells/ml). Total volume in culture wells was 200 μL, and plates were centrifuged briefly for 2 min at 1,200 rpm. Unless specified otherwise, 20 μL of culture supernatants were collected and NanoLuc activity was determined by adding 40 μL of RPMI-1640 and 30 μL of NanoLuc reagent (Promega) in black, flat-bottom, 96½-well plates. Bioluminescence was measured during 0.1 s with a luminometer (Enspire; Perkin Elmer).

[2] = test system: K562-NanoLuc cells; test: Lysis of K562-NanoLuc cells by detergent, NanoLuc activity in supernatant; format: cell-based, human; details: cells contacted with detergent, FIG. 1A

activity of the NanoLuc enzyme in the supernatant of K562-NanoLuc cells [2] | Compound | cytolytic activity of NK cells (NanoLuc activity in supernatant) [1]
– | NC(=NCc1ccc(Cl)cc1)SCCCc1cnc[nH]1 [Clobenpropit] | completely inhibited
increased | NP40 | –
